US10934298B2, “Substituted pyrazolo[1,5-a]pyrimidines for the treatment of medical disorders” (BIAL—BioTech Investments, Inc., priority 2016, dated 2021)

Target: T1, glucocerebrosidase (Gcase) (Homo sapiens, UniProt P04062)
T1 construct: micellar solution containing 10 nM GCase and 100 nM saposin C
T1 sequence (P04062 40-536): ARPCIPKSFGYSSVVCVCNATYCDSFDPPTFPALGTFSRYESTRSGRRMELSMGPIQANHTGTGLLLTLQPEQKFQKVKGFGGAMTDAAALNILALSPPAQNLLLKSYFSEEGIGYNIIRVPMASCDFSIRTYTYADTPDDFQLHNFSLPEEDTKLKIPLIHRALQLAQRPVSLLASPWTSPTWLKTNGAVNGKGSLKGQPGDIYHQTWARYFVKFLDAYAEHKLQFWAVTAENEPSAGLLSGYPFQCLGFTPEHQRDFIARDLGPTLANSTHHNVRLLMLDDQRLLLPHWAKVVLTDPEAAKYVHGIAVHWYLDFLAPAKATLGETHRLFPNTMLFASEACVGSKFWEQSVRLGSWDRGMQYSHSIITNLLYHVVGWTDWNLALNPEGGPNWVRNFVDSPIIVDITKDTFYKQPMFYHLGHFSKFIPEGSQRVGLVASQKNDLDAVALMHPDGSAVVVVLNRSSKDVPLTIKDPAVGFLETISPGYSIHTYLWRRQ
Test: Glucocerebrosidase (Gcase) activation assay with 4-methylumbelliferyl-beta-D-glucopyranoside substrate, saposin C and phosphatidylserine/triton micelles, fluorescence readout
Type: biochemical
In short: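 Test compounds are first screened at 1.0 and 0.1 μM final, then titrated in 8 points (3-fold from 5 μM) against human GCase with saposin C in phosphatidylserine/triton X-100 micelles at pH 4.7. Reactions run 15 min at room temperature, with fluorescence read at 365/440 nm.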

Structure (SMILES)	Percent Gcase Activation, 0.1 μM Test Compound (test compound at 0.1 μM)	Percent Gcase Activation, 1 μM Test Compound (test compound at 1.0 μM)	Percent Gcase Activation, 0.1 μM Test Compound (0.1 μM test compound)	Percent Gcase Activation, 1 μM Test Compound (1 μM test compound)
Cc1cncc(-c2cc(C)n3ncc(C(=O)NC(C)C(F)(F)F)c3n2)c1 (stereo not drawn) [III-282]	** (Gcase activation in the range of 10% up to 20%)	+++ (Gcase activation greater than 60%)		
Cc1ccc(-c2cc(C)n3ncc(C(=O)NC(C)C(F)(F)F)c3n2)cn1 (stereo not drawn) [III-283]			* (less than 10% Gcase activation)	++ (Gcase activation in the range of 30% up to 60%)
Cc1cc(-c2cnccc2C(F)(F)F)nc2c(C(=O)NC(C)C(F)(F)F)cnn12 (stereo not drawn) [III-284]			** (Gcase activation in the range of 10% up to 20%)	+++ (Gcase activation greater than 60%)
Cc1cc(-c2cncc(C(F)(F)F)c2)nc2c(C(=O)NC(C)C(F)(F)F)cnn12 (stereo not drawn) [III-285]			*** (greater than 20% Gcase activation)	+++ (Gcase activation greater than 60%)
Cc1cc(-c2cncc(C(F)(F)F)c2)nc2c(C(=O)N[C@H](C)C(F)(F)F)cnn12 [III-286]			*** (greater than 20% Gcase activation)	+++ (Gcase activation greater than 60%)
Cc1cc(-c2cncc(C(F)(F)F)c2)nc2c(C(=O)N[C@@H](C)C(F)(F)F)cnn12 [III-287]			*** (greater than 20% Gcase activation)	+++ (Gcase activation greater than 60%)
Cc1cc(-c2ccc(C(F)(F)F)nc2)nc2c(C(=O)NC(C)C(F)(F)F)cnn12 (stereo not drawn) [III-288]			** (Gcase activation in the range of 10% up to 20%)	+++ (Gcase activation greater than 60%)
Cc1cc(-c2ccc3c(c2)OCO3)nc2c(C(=O)NC(C)C(F)(F)F)cnn12 (stereo not drawn) [III-289]			*** (greater than 20% Gcase activation)	+++ (Gcase activation greater than 60%)
Cc1cc(-c2cncc(Cl)c2)nc2c(C(=O)N[C@@H](C)C3CC3)cnn12 [III-290]			*** (greater than 20% Gcase activation)	+++ (Gcase activation greater than 60%)
Cc1cc(-c2cncc(Cl)c2)nc2c(C(=O)N[C@H](C)C3CC3)cnn12 [III-291]			*** (greater than 20% Gcase activation)	+++ (Gcase activation greater than 60%)
Cc1cc(-c2cncc(Cl)c2)nc2c(C(=O)NC(C)(C)C3CC3)cnn12 [III-292]			*** (greater than 20% Gcase activation)	+++ (Gcase activation greater than 60%)
CCCCO[C@H]1CC[C@H](NC(=O)c2cnn3c(C)cc(-c4cncc(Cl)c4)nc23)CC1 [III-293]			*** (greater than 20% Gcase activation)	+++ (Gcase activation greater than 60%)
Cc1cc(-c2cc(F)c3c(c2)OCO3)nc2c(C(=O)NC(C)C(F)(F)F)cnn12 (stereo not drawn) [III-294]			*** (greater than 20% Gcase activation)	+++ (Gcase activation greater than 60%)
Cc1cc(-c2cc(F)c3ocnc3c2)nc2c(C(=O)NC(C)C(F)(F)F)cnn12 (stereo not drawn) [III-295]			*** (greater than 20% Gcase activation)	+++ (Gcase activation greater than 60%)
Cc1cc(-c2cc(F)c3ocnc3c2)nc2c(C(=O)N[C@H](C)C(F)(F)F)cnn12 [III-296]			*** (greater than 20% Gcase activation)	+++ (Gcase activation greater than 60%)
Cc1cc(-c2cc(F)c3ocnc3c2)nc2c(C(=O)N[C@@H](C)C(F)(F)F)cnn12 [III-297]			*** (greater than 20% Gcase activation)	+++ (Gcase activation greater than 60%)
COCCOc1ccc(-c2cc(C)n3ncc(C(=O)NC(C)C(F)(F)F)c3n2)cc1F (stereo not drawn) [III-298]			*** (greater than 20% Gcase activation)	+++ (Gcase activation greater than 60%)
Cc1cc(-c2ccc(N3CCOCC3)c(F)c2)nc2c(C(=O)NC(C)C(F)(F)F)cnn12 (stereo not drawn) [III-299]			*** (greater than 20% Gcase activation)	+++ (Gcase activation greater than 60%)

Structure (SMILES)	Percent Gcase Activation, 0.1 μM Test Compound (test compound at 0.1 μM)	Percent Gcase Activation, 1 μM Test Compound (test compound at 1.0 μM)	Percent Gcase Activation, 0.1 μM Test Compound (0.1 μM test compound)	Percent Gcase Activation, 1 μM Test Compound (1 μM test compound)
Cc1cc(-c2sccc2C#N)nc2c(C(=O)NC(C)C(F)(F)F)cnn12 (stereo not drawn) [III-300]			*** (greater than 20% Gcase activation)	+++ (Gcase activation greater than 60%)
Cc1cc(-c2sccc2C#N)nc2c(C(=O)N[C@@H](C)C3CC3)cnn12 [III-301]			*** (greater than 20% Gcase activation)	+++ (Gcase activation greater than 60%)
Cc1cc(-c2sccc2C#N)nc2c(C(=O)N[C@H](C)C3CC3)cnn12 [III-302]			*** (greater than 20% Gcase activation)	+++ (Gcase activation greater than 60%)
Cc1cc(-c2ccc3c(c2)ncn3C)nc2c(C(=O)NC(C3CC3)C(F)(F)F)cnn12 (stereo not drawn) [III-303]			** (Gcase activation in the range of 10% up to 20%)	+ (less than 30% Gcase activation)
Cc1cc(-c2ccc3ncn(C)c3c2)nc2c(C(=O)NC(C3CC3)C(F)(F)F)cnn12 (stereo not drawn) [III-304]			** (Gcase activation in the range of 10% up to 20%)	+++ (Gcase activation greater than 60%)
Cc1cc(-c2ccc3ncn(C)c3c2)nc2c(C(=O)N[C@H](C3CC3)C(F)(F)F)cnn12 [III-305]			*** (greater than 20% Gcase activation)	+++ (Gcase activation greater than 60%)
Cc1cc(-c2ccc3ncn(C)c3c2)nc2c(C(=O)N[C@@H](C3CC3)C(F)(F)F)cnn12 [III-306]			*** (greater than 20% Gcase activation)	+++ (Gcase activation greater than 60%)
Cc1cc(-c2ccc3nc[nH]c3c2)nc2c(C(=O)NC(C3CC3)C(F)(F)F)cnn12 (stereo not drawn) [III-307]			*** (greater than 20% Gcase activation)	++ (Gcase activation in the range of 30% up to 60%)
Cc1cc(-c2cccc3nc[nH]c23)nc2c(C(=O)NC(C3CC3)C(F)(F)F)cnn12 (stereo not drawn) [III-308]			* (less than 10% Gcase activation)	+++ (Gcase activation greater than 60%)
Cc1cc(-c2cccc3ncn(C)c23)nc2c(C(=O)NC(C3CC3)C(F)(F)F)cnn12 (stereo not drawn) [III-309]			* (less than 10% Gcase activation)	+ (less than 30% Gcase activation)
Cc1cc(-c2cccc3c2ncn3C)nc2c(C(=O)NC(C3CC3)C(F)(F)F)cnn12 (stereo not drawn) [III-310]			** (Gcase activation in the range of 10% up to 20%)	+++ (Gcase activation greater than 60%)
Cc1cc(-c2nc3ccccc3[nH]2)nc2c(C(=O)NC(C3CC3)C(F)(F)F)cnn12 (stereo not drawn) [III-311]			* (less than 10% Gcase activation)	++ (Gcase activation in the range of 30% up to 60%)
Cc1cc(-c2nc3ccccc3n2C)nc2c(C(=O)NC(C3CC3)C(F)(F)F)cnn12 (stereo not drawn) [III-312]			** (Gcase activation in the range of 10% up to 20%)	++ (Gcase activation in the range of 30% up to 60%)
Cc1cc(N2CC(C(C)C)OC2=O)nc2c(C(=O)NC(c3ccccc3)C(F)(F)F)cnn12 (stereo not drawn) [III-313]			*** (greater than 20% Gcase activation)	+++ (Gcase activation greater than 60%)
Cc1cc(N2C[C@H](c3ccccc3)OC2=O)nc2c(C(=O)NC(C3CC3)C(F)(F)F)cnn12 (stereo partly drawn) [III-314]			*** (greater than 20% Gcase activation)	+++ (Gcase activation greater than 60%)
Cc1cc(N2C[C@@H](c3ccccc3)OC2=O)nc2c(C(=O)NC(C3CC3)C(F)(F)F)cnn12 (stereo partly drawn) [III-315]			*** (greater than 20% Gcase activation)	+++ (Gcase activation greater than 60%)
Cc1cc(N2CC(C(C)C)OC2=O)nc2c(C(=O)NC(C3CC3)C(F)(F)F)cnn12 (stereo not drawn) [III-316]			** (Gcase activation in the range of 10% up to 20%)	+++ (Gcase activation greater than 60%)
Cc1cc(N2CC(C(C)C)OC2=O)nc2c(C(=O)N[C@H](C3CC3)C(F)(F)F)cnn12 (stereo partly drawn) [III-317]			** (Gcase activation in the range of 10% up to 20%)	+++ (Gcase activation greater than 60%)
